Each structure is given as a SMILES string. pIC50: −log10 of the molar value.

Results on 4 molecules are retold here after BindingDB's records for patent US9862711 (Novartis, 2018).

Chain of Phosphatidylinositol 4-kinase beta (Q9UBF8 whole entry): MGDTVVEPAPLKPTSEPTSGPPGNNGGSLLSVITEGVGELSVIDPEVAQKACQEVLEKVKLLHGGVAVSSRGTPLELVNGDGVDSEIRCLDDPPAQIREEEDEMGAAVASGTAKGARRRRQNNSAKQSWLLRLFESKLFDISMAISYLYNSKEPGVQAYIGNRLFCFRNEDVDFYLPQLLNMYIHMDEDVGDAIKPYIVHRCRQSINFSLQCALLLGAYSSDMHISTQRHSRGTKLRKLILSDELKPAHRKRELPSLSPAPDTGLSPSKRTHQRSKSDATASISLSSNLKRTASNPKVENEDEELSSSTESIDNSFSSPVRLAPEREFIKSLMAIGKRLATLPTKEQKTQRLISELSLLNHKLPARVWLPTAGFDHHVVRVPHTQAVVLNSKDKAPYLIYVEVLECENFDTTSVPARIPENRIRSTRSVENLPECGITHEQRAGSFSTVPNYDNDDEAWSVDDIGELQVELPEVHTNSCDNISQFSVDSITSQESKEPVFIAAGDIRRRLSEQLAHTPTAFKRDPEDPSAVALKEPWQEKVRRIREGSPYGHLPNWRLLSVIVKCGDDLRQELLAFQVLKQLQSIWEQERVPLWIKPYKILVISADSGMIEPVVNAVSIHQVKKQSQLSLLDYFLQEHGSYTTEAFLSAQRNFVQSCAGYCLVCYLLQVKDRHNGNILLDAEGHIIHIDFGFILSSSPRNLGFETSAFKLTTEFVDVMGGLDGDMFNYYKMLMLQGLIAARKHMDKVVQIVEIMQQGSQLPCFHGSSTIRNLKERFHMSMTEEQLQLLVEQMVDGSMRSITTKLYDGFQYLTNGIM

This assay addresses Phosphatidylinositol 4-kinase beta (Homo sapiens, UniProt Q9UBF8). Kind of assay: Kinase Glo Luminescent Kinase Assay. The text has this:
PI 3-Kinase Alpha (A), Pb 3-Kinase Beta (B), Vps34 (C), PI 4-Kinase Beta (D):The luminescence-based ATP detection reagent KinaseGlo was obtained from Promega, (Cat. No. V6714, Lot No. 236161) through Catalys, Wallisellen, Switzerland. L-alpha-phosphatidylinositol (PI, liver, bovine) was obtained from Avanti Polar Lipid (Cat. No. 840042C, Lot#LPI-274), Phosphatidylinositol-4,5-bisphosphate (PIP(4,5)2) was also obtained from Avanti Polar Lipid (Cat. No. 840046X). L-α-Phosphatidylserine (PS) was obtained from Avanti Polar Lipid (Cat. No. 840032C), n-Octylglucoside from Avanti Polar Lipid (Cat. No. 10634425001). Luminescence is a well established readout to determine ATP concentrations and can thus be used to follow the activity of many kinases regardless of their substrate. The Kinase Glo Luminescent Kinase Assay (Promega, Madison/WI, USA) is a homogeneous HTS method of measuring kinase activity by quantifying the amount of ATP remaining in solution following a kinase reaction.
For the molecule `Cc1ccc(S(=O)(=O)NC2CC3(CC(O)C3)C2)cc1-c1cncc(-c2cn(C)nc2C)n1` (centres undefined) [US9862711, Example 6], the pIC50 was less than 5.00.

Molecule `Cc1ccc(S(=O)(=O)NC[C@H]2C[C@@H](O)C2)cc1-c1cncc(-c2cn(C)nc2C)n1` [US9862711, Example 7] showed a pIC50 of less than 5.00.

Molecule `Cc1ccc(S(=O)(=O)N[C@H]2CC[C@H](O)CC2)cc1-c1cncc(-c2csc(CN3CCOCC3)c2)n1` [US9862711, Example 12] showed a pIC50 of less than 5.04.

The molecule `Cc1cc(-c2cncc(-c3cc(S(=O)(=O)NC[C@H]4C[C@@H](O)C4)ccc3C)n2)n(C)n1` [US9862711, Example 13] showed a negative logarithm of the IC50 (pIC50) of less than 5.02.
